test system: late watergrass; experiment: Test Example 1: herbicidal activity, application before weed generation under submerged conditions (Table 16, symbol A); format: in vivo, late watergrass (Echinochloa oryzicola); conditions: 320 g/ha applied herbicide
Outline: (§1)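 Emulsion formulation, water-diluted to set dose, was put onto the flooded surface (4 cm depth, alluvial soil) the same day weeds were sown and 2.5-leaf rice transplanted. After 3 weeks at 25-30 °C under glass, each species was rated 0 (≤5% kill) to 5 (≥90% kill).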

SMILES	Herbicidal effect on A: late watergrass (grade 0-5)
C=CCC(C)Oc1ccc(-c2sc3ccccc3c2-c2c(O)c(C)nn(C)c2=O)cc1 (racemic) [1-213]	5 (Herbicidal rate of 90% or more (almost completely withered))
COCC(C)Oc1ccc(-c2sc3ccccc3c2-c2c(O)c(C)nn(C)c2=O)cc1 (racemic) [1-228]	5 (Herbicidal rate of 90% or more (almost completely withered))

test system: Japanese bulrush; experiment: Test Example 1: herbicidal activity, application before weed generation under submerged conditions (Table 16, symbol B); format: in vivo, Japanese bulrush (Schoenoplectus juncoides); conditions: 320 g/ha applied herbicide
Outline: as §1

SMILES	Herbicidal effect on B: Japanese bulrush (grade 0-5)
C=CCC(C)Oc1ccc(-c2sc3ccccc3c2-c2c(O)c(C)nn(C)c2=O)cc1 (racemic) [1-213]	5 (Herbicidal rate of 90% or more (almost completely withered))
COCC(C)Oc1ccc(-c2sc3ccccc3c2-c2c(O)c(C)nn(C)c2=O)cc1 (racemic) [1-228]	5 (Herbicidal rate of 90% or more (almost completely withered))

test system: late watergrass; experiment: Test Example 2: herbicidal activity, application during weed generation under submerged conditions (Table 17, symbol A); format: in vivo, late watergrass (Echinochloa oryzicola); conditions: AAH 320 g/ha; application during weed generation, submerged conditions
Outline: (§2)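 Herbicide emulsion, diluted with water to the chosen amount, is applied onto 4 cm floodwater over alluvial soil where the weeds were co-sown and raised at 25–30° C. Application timing: 1–2 leaves. Assessment: three weeks afterwards.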

SMILES	herbicidal effect rating, A: late watergrass
C=CCC(C)Oc1ccc(-c2sc3ccccc3c2-c2c(O)c(C)nn(C)c2=O)cc1 (racemic) [1-213]	3 (Herbicidal rate of 40% or more and less than 70%)
COCC(C)Oc1ccc(-c2sc3ccccc3c2-c2c(O)c(C)nn(C)c2=O)cc1 (racemic) [1-228]	5 (Herbicidal rate of 90% or more (almost completely withered))

test system: oval-leafed pondweed; experiment: Test Example 2: herbicidal activity, application during weed generation under submerged conditions (Table 17, symbol C); format: in vivo, oval-leafed pondweed (Monochoria vaginalis); conditions: AAH 320 g/ha; application during weed generation, submerged conditions
Outline: as §2

SMILES	herbicidal effect rating, C: oval-leafed pondweed
C=CCC(C)Oc1ccc(-c2sc3ccccc3c2-c2c(O)c(C)nn(C)c2=O)cc1 (racemic) [1-213]	4 (Herbicidal rate of 70% or more and less than 90%)
COCC(C)Oc1ccc(-c2sc3ccccc3c2-c2c(O)c(C)nn(C)c2=O)cc1 (racemic) [1-228]	3 (Herbicidal rate of 40% or more and less than 70%)

test system: barnyard grass; experiment: Test Example 3: herbicidal effect by foliage application, Wagner pot (Table 18, symbol H); format: in vivo, barnyard grass (Echinochloa crus-galli); conditions: 320 g/ha
Outline: (§3)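 Plants were sown in alluvial soil held under 0.1–0.5 cm standing water and grown 14 days in a greenhouse at 25–30 °C. An emulsifiable formulation, water-diluted to the set dose, was then sprayed onto the foliage, and effects were scored three weeks later using previously defined criteria.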

SMILES	herbicidal effect on H (barnyard grass), rating 0-5
C=CCC(C)Oc1ccc(-c2sc3ccccc3c2-c2c(O)c(C)nn(C)c2=O)cc1 (racemic) [1-213]	5 (Herbicidal rate of 90% or more (almost completely withered))
COCC(C)Oc1ccc(-c2sc3ccccc3c2-c2c(O)c(C)nn(C)c2=O)cc1 (racemic) [1-228]	5 (Herbicidal rate of 90% or more (almost completely withered))

test system: Chinese sprangletop; experiment: Test Example 3: herbicidal effect by foliage application, Wagner pot (Table 18, symbol D); format: in vivo, chinese sprangletop (Leptochloa chinensis); conditions: 320 g/ha
Outline: as §3

SMILES	herbicidal effect on D (Chinese sprangletop), rating 0-5
C=CCC(C)Oc1ccc(-c2sc3ccccc3c2-c2c(O)c(C)nn(C)c2=O)cc1 (racemic) [1-213]	4 (Herbicidal rate of 70% or more and less than 90%)
COCC(C)Oc1ccc(-c2sc3ccccc3c2-c2c(O)c(C)nn(C)c2=O)cc1 (racemic) [1-228]	5 (Herbicidal rate of 90% or more (almost completely withered))

test system: rice flat sedge; experiment: Test Example 3: herbicidal effect by foliage application, Wagner pot (Table 18, symbol E); format: in vivo, rice flat sedge (Cyperus iria); conditions: 320 g/ha
Outline: as §3

SMILES	herbicidal effect on E (rice flat sedge), rating 0-5
C=CCC(C)Oc1ccc(-c2sc3ccccc3c2-c2c(O)c(C)nn(C)c2=O)cc1 (racemic) [1-213]	3 (Herbicidal rate of 40% or more and less than 70%)
COCC(C)Oc1ccc(-c2sc3ccccc3c2-c2c(O)c(C)nn(C)c2=O)cc1 (racemic) [1-228]	4 (Herbicidal rate of 70% or more and less than 90%)

test system: Italian ryegrass; experiment: Test Example 4: herbicidal effect by soil treatment (Table 19, symbol K); format: in vivo, Italian ryegrass (Lolium multiflorum); conditions: AAH 320 g/ha
Outline: (§4)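 Pre-emergence style soil spray: seeds under ~1.5 cm sterilized diluvial soil received a uniform coat of emulsion diluted to the predetermined herbicide amount. Greenhouse 25–30° C; readout at week three on previously defined criteria.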

SMILES	K: Italian ryegrass, herbicidal effect rating
C=CCC(C)Oc1ccc(-c2sc3ccccc3c2-c2c(O)c(C)nn(C)c2=O)cc1 (racemic) [1-213]	3 (Herbicidal rate of 40% or more and less than 70%)
COCC(C)Oc1ccc(-c2sc3ccccc3c2-c2c(O)c(C)nn(C)c2=O)cc1 (racemic) [1-228]	4 (Herbicidal rate of 70% or more and less than 90%)

test system: windgrass; experiment: Test Example 4: herbicidal effect by soil treatment (Table 19, symbol L); format: in vivo, windgrass (Apera spica-venti); conditions: AAH 320 g/ha
Outline: as §4

SMILES	L: windgrass, herbicidal effect rating
C=CCC(C)Oc1ccc(-c2sc3ccccc3c2-c2c(O)c(C)nn(C)c2=O)cc1 (racemic) [1-213]	2 (Herbicidal rate of 20% or more and less than 40%)

test system: redroot pigweed; experiment: Test Example 4: herbicidal effect by soil treatment (Table 19, symbol N); format: in vivo, redroot pigweed (Amaranthus retroflexus); conditions: AAH 320 g/ha
Outline: as §4

SMILES	N: redroot pigweed, herbicidal effect rating
C=CCC(C)Oc1ccc(-c2sc3ccccc3c2-c2c(O)c(C)nn(C)c2=O)cc1 (racemic) [1-213]	0 (Herbicidal rate of 5% or less (almost no effect))
COCC(C)Oc1ccc(-c2sc3ccccc3c2-c2c(O)c(C)nn(C)c2=O)cc1 (racemic) [1-228]	5 (Herbicidal rate of 90% or more (almost completely withered))

test system: southern crabgrass; experiment: Test Example 5: herbicidal effect by foliage application, plastic box (Table 20, symbol F); format: in vivo, southern crabgrass (Digitaria ciliaris); conditions: foliage application, 320 g/ha, 3 weeks after application
Outline: (§5)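 Plants were sown into sterilized diluvial soil under about 1.5 cm cover and kept in a greenhouse at 25° C. to 30° C. Fourteen days on, foliage received an even spray of the diluted emulsion. Herbicidal or crop effect was judged three weeks afterwards.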

SMILES	effect on southern crabgrass (F)
C=CCC(C)Oc1ccc(-c2sc3ccccc3c2-c2c(O)c(C)nn(C)c2=O)cc1 (racemic) [1-213]	5 (Herbicidal rate of 90% or more (almost completely withered))
COCC(C)Oc1ccc(-c2sc3ccccc3c2-c2c(O)c(C)nn(C)c2=O)cc1 (racemic) [1-228]	5 (Herbicidal rate of 90% or more (almost completely withered))

test system: green foxtail; experiment: Test Example 5: herbicidal effect by foliage application, plastic box (Table 20, symbol G); format: in vivo, green foxtail (Setaria viridis); conditions: foliage application, 320 g/ha, 3 weeks after application
Outline: as §5

SMILES	effect on green foxtail (G)
C=CCC(C)Oc1ccc(-c2sc3ccccc3c2-c2c(O)c(C)nn(C)c2=O)cc1 (racemic) [1-213]	5 (Herbicidal rate of 90% or more (almost completely withered))
COCC(C)Oc1ccc(-c2sc3ccccc3c2-c2c(O)c(C)nn(C)c2=O)cc1 (racemic) [1-228]	5 (Herbicidal rate of 90% or more (almost completely withered))

test system: barnyard grass; experiment: Test Example 5: herbicidal effect by foliage application, plastic box (Table 20, symbol H); format: in vivo, barnyard grass (Echinochloa crus-galli); conditions: foliage application, 320 g/ha, 3 weeks after application
Outline: as §5

SMILES	effect on barnyard grass (H)
C=CCC(C)Oc1ccc(-c2sc3ccccc3c2-c2c(O)c(C)nn(C)c2=O)cc1 (racemic) [1-213]	5 (Herbicidal rate of 90% or more (almost completely withered))
COCC(C)Oc1ccc(-c2sc3ccccc3c2-c2c(O)c(C)nn(C)c2=O)cc1 (racemic) [1-228]	5 (Herbicidal rate of 90% or more (almost completely withered))

test system: wild oat; experiment: Test Example 5: herbicidal effect by foliage application, plastic box (Table 20, symbol I); format: in vivo, wild oat (Avena fatua); conditions: foliage application, 320 g/ha, 3 weeks after application
Outline: as §5

SMILES	effect on wild oat (I)
C=CCC(C)Oc1ccc(-c2sc3ccccc3c2-c2c(O)c(C)nn(C)c2=O)cc1 (racemic) [1-213]	3 (Herbicidal rate of 40% or more and less than 70%)
COCC(C)Oc1ccc(-c2sc3ccccc3c2-c2c(O)c(C)nn(C)c2=O)cc1 (racemic) [1-228]	0 (Herbicidal rate of 5% or less (almost no effect))

test system: blackgrass; experiment: Test Example 5: herbicidal effect by foliage application, plastic box (Table 20, symbol J); format: in vivo, blackgrass (Alopecurus myosuroides); conditions: foliage application, 320 g/ha, 3 weeks after application
Outline: as §5

SMILES	effect on blackgrass (J)
C=CCC(C)Oc1ccc(-c2sc3ccccc3c2-c2c(O)c(C)nn(C)c2=O)cc1 (racemic) [1-213]	5 (Herbicidal rate of 90% or more (almost completely withered))
COCC(C)Oc1ccc(-c2sc3ccccc3c2-c2c(O)c(C)nn(C)c2=O)cc1 (racemic) [1-228]	5 (Herbicidal rate of 90% or more (almost completely withered))

test system: persian speedwell; experiment: Test Example 5: herbicidal effect by foliage application, plastic box (Table 20, symbol R); format: in vivo, Persian speedwell (Veronica persica); conditions: foliage application, 320 g/ha, 3 weeks after application
Outline: as §5

SMILES	effect on persian speedwell (R)
C=CCC(C)Oc1ccc(-c2sc3ccccc3c2-c2c(O)c(C)nn(C)c2=O)cc1 (racemic) [1-213]	5 (Herbicidal rate of 90% or more (almost completely withered))
COCC(C)Oc1ccc(-c2sc3ccccc3c2-c2c(O)c(C)nn(C)c2=O)cc1 (racemic) [1-228]	5 (Herbicidal rate of 90% or more (almost completely withered))

From US20230085307A1, “PYRIDAZINONE COMPOUND AND HERBICIDE” (NISSAN CHEMICAL CORPORATION, priority 2019, published 2023)
